Assay [1] addresses T1, Mitogen-activated protein kinase kinase kinase 6 (Homo sapiens) (UniProt O95382).
T1 sequence (whole entry): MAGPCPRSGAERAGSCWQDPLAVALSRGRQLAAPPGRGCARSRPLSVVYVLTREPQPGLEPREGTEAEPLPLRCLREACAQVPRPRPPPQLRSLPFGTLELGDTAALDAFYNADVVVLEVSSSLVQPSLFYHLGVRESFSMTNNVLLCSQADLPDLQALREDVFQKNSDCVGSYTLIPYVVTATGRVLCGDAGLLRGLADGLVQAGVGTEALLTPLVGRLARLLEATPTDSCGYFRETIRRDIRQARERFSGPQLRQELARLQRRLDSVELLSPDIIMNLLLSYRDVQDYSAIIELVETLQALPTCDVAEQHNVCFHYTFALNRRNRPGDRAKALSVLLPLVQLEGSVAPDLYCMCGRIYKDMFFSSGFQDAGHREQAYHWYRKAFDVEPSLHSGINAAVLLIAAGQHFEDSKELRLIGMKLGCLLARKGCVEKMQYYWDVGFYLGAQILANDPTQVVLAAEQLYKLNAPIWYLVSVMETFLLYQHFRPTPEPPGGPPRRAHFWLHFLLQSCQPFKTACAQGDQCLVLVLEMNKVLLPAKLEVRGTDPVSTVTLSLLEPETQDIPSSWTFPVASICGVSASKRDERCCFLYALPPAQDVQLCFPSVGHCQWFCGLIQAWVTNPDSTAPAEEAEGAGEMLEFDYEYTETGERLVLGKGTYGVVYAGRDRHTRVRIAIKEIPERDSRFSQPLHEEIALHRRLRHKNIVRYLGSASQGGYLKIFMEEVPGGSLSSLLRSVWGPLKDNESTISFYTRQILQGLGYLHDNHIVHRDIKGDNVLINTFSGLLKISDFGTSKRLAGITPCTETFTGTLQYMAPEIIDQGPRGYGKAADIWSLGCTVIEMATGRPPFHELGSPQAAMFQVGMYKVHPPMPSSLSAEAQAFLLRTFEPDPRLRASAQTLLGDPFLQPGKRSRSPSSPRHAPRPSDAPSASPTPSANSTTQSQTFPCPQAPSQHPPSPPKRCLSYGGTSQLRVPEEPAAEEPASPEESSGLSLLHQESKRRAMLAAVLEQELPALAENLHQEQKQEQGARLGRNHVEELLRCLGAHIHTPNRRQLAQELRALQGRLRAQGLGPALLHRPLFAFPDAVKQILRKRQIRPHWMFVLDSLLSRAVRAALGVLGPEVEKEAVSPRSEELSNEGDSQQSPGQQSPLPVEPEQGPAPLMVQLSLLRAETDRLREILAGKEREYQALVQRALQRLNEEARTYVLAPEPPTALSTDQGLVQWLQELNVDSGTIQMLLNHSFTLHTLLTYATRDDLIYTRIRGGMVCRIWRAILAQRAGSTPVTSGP
Description: Inhibition of ASK2 (unknown origin) assessed as residual activity at 1000 nM by KINOMEscan analysis relative to control.

Assay [2] has as its target Tyrosine-protein kinase Blk (Homo sapiens) (UniProt P51451). Briefly: Inhibition of BLK (unknown origin) assessed as residual activity at 1000 nM by KINOMEscan analysis relative to control.
The subject of assay [3] is Epidermal growth factor receptor (Homo sapiens), P00533 [L858R]. Description: Inhibition of EGFR L858R mutant (unknown origin) assessed as residual activity at 1000 nM by KINOMEscan analysis relative to control.
Assay [4] concerns the target T2, Ephrin type-A receptor 8 (Homo sapiens) (UniProt P29322).
T2 sequence (whole entry): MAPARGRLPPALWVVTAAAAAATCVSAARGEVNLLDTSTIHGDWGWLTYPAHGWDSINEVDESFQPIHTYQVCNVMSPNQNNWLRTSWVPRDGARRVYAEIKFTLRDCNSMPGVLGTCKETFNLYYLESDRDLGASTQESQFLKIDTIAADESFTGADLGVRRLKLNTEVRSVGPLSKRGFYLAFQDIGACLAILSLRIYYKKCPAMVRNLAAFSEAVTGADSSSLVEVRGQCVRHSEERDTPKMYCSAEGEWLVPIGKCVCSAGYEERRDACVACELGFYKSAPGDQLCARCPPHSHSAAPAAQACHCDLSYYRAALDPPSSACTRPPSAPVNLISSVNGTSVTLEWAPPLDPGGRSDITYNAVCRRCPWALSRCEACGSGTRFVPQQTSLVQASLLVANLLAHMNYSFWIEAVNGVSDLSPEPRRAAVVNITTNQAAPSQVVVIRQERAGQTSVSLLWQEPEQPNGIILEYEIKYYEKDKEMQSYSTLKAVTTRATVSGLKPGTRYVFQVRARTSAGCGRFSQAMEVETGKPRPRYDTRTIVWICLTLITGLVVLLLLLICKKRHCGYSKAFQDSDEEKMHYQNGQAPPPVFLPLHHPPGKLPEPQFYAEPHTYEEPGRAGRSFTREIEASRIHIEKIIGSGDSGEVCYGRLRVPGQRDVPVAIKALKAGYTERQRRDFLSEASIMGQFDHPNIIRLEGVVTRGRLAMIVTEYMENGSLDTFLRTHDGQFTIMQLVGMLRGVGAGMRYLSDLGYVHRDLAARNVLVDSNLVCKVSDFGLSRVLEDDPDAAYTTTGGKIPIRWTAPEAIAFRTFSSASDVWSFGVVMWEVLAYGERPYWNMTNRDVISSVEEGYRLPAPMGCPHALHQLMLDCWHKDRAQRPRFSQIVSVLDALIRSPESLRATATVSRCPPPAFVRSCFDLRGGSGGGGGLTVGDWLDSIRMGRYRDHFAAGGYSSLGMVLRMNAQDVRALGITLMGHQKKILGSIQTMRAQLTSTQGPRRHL
Description: Inhibition of EPHA8 (unknown origin) assessed as residual activity at 1000 nM by KINOMEscan analysis relative to control.

In assay [5] the target is Receptor tyrosine-protein kinase erbB-4 (Homo sapiens) (UniProt Q15303). Description: Inhibition of ERBB4 (unknown origin) assessed as residual activity at 1000 nM by KINOMEscan analysis relative to control.
Assay [6] has as its system Phosphatidylinositol 4,5-bisphosphate 3-kinase catalytic subunit alpha isoform (Homo sapiens), P42336 [M1043I]. Description: Inhibition of PIK3CA M1043I mutant (unknown origin) assessed as residual activity at 1000 nM by KINOMEscan analysis relative to control.
Assay [7] has as its target Protein kinase C theta type (Homo sapiens) (UniProt Q04759). Briefly: Inhibition of PRKCQ (unknown origin) assessed as residual activity at 1000 nM by KINOMEscan analysis relative to control.
Assay [8] deals with Tyrosine-protein kinase SYK (Homo sapiens) (UniProt P43405). Briefly: Inhibition of SYK (unknown origin) assessed as residual activity at 1000 nM by KINOMEscan analysis relative to control.
The target of assay [9] is Serine/threonine-protein kinase 32B (Homo sapiens) (UniProt Q9NY57). Briefly: Inhibition of YANK2 (unknown origin) assessed as residual activity at 1000 nM by KINOMEscan analysis relative to control.
Serine/threonine-protein kinase 32B (Homo sapiens), sequence (Q9NY57 whole entry): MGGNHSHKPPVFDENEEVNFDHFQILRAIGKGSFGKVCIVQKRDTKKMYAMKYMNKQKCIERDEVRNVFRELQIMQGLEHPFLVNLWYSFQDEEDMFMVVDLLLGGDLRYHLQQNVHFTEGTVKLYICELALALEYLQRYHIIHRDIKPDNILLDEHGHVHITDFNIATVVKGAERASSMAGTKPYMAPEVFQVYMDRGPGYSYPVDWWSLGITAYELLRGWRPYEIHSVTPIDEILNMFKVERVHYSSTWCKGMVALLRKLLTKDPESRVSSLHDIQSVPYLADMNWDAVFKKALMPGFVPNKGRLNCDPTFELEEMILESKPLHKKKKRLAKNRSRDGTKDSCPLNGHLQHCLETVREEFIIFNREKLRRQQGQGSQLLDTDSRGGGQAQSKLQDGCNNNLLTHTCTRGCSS

Protein kinase C theta type (Homo sapiens), sequence (Q04759 whole entry, looked up): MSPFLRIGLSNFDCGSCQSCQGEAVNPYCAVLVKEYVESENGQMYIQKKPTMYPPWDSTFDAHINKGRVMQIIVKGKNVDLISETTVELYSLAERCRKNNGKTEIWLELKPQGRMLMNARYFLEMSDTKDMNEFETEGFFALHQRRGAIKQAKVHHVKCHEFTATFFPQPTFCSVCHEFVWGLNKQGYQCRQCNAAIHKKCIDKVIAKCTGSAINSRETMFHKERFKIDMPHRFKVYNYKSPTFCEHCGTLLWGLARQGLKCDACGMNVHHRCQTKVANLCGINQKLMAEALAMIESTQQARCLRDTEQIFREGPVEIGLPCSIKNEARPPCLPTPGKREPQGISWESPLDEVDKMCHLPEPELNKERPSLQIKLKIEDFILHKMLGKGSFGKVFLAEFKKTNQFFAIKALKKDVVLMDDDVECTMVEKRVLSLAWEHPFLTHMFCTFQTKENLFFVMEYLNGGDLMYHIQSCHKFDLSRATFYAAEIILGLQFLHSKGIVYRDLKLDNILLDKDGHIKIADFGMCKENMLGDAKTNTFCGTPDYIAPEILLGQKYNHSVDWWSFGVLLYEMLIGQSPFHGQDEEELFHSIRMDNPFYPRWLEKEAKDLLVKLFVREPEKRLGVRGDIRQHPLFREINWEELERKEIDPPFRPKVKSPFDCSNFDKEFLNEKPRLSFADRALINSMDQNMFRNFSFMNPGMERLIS
Tyrosine-protein kinase Blk (Homo sapiens), sequence (P51451 2-505 limits assumed): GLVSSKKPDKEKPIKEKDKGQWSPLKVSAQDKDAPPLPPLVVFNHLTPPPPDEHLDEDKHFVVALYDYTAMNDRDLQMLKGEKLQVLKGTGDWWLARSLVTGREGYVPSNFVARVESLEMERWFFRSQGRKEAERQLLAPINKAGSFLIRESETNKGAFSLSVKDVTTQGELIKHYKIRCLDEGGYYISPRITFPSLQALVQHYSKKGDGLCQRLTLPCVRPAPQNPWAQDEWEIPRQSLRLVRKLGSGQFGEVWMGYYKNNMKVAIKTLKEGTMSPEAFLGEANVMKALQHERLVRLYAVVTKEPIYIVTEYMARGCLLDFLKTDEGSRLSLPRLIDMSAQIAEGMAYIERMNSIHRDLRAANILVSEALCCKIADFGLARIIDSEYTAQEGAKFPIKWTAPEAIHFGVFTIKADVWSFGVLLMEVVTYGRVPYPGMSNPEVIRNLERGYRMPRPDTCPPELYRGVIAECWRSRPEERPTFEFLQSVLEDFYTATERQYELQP
Receptor tyrosine-protein kinase erbB-4 (Homo sapiens), sequence (Q15303 whole entry, canonical isoform): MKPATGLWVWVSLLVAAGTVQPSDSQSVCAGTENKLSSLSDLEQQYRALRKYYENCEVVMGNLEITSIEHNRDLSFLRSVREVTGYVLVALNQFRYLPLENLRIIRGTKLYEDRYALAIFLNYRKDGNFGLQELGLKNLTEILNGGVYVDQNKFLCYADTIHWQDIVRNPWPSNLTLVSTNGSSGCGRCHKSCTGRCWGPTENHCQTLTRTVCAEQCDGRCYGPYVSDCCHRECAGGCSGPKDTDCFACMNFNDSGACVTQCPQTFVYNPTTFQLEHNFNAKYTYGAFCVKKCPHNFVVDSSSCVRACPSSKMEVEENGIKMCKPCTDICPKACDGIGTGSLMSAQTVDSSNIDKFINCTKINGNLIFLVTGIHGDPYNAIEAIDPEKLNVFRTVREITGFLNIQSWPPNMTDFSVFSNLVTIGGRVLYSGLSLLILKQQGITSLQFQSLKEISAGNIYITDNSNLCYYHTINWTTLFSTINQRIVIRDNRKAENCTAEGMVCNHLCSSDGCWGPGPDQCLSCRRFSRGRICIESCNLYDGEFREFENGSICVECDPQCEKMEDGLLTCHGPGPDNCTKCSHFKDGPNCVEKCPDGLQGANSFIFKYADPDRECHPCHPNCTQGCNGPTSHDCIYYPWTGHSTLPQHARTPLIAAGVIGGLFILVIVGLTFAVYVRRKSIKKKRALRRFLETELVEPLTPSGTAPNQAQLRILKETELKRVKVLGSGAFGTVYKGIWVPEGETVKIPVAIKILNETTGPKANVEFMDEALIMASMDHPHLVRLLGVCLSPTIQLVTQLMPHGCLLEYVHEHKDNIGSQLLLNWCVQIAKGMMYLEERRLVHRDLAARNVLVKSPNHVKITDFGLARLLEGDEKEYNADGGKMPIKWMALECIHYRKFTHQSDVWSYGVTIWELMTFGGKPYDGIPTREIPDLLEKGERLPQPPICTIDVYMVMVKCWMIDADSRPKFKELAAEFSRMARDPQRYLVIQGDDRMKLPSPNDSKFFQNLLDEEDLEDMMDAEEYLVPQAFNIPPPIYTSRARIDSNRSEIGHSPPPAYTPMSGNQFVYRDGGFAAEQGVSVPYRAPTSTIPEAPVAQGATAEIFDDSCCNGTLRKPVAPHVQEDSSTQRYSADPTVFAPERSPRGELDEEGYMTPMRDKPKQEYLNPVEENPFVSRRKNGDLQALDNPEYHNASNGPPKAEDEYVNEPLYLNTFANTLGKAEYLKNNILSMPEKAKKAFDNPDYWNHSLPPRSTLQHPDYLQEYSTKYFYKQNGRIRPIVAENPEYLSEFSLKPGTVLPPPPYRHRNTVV
Phosphatidylinositol 4,5-bisphosphate 3-kinase catalytic subunit alpha isoform (Homo sapiens), P42336 [M1043I], sequence (P42336 whole entry M1043I, canonical isoform): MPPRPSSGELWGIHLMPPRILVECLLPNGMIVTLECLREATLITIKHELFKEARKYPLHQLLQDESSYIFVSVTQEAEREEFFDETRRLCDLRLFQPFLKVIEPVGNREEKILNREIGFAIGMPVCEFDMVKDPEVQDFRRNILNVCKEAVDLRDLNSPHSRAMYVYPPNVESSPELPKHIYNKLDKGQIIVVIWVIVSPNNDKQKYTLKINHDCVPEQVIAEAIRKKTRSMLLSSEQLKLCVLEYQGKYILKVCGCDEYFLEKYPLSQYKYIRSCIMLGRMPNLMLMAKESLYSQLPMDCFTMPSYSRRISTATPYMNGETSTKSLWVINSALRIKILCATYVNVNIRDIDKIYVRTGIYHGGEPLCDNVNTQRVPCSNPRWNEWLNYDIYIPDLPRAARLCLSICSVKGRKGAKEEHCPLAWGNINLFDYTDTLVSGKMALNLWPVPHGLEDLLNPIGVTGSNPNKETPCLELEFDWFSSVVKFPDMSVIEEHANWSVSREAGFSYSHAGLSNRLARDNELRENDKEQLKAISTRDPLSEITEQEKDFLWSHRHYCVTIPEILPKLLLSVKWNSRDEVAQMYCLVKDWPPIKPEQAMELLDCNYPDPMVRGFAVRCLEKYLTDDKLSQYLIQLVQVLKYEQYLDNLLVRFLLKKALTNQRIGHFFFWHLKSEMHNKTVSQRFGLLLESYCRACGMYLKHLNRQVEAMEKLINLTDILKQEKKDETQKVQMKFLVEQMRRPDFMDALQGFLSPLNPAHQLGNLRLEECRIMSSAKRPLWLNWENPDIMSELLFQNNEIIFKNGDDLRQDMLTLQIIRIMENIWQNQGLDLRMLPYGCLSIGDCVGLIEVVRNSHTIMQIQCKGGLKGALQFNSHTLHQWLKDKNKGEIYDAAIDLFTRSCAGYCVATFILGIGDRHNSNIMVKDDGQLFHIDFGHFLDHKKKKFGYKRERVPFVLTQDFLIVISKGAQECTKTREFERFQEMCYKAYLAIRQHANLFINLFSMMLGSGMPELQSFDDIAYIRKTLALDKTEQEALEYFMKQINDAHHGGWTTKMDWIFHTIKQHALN

With `COc1cc2ncnc(N[C@H](C)c3cccc4ccccc34)c2cc1OC`, the Activity in assay [1] was found to be 67%; in [2], 53%; in assay [3], 1.7%; in [4] it was 94%; in assay [5], 46%; in assay [6], 92%. Further, the figures for the Activity in [7], in assay [8] and in [9] were 100%, 100% and 92%, respectively.

`COc1cc2nc(C)nc(N[C@H](C)c3cccc(-c4cn[nH]c4)c3)c2cc1OC`: the Activity in assay [1] stood at 69%; in [2], 100%; in assay [3], 100%; in assay [4] it was 100%; in assay [5] it was 89%; in assay [6], 100%. Further, the Activity in [7] stood at 84%; in [8], 76%; in assay [9], 86%.
